The text below walks through data of US9347934B2, “Assays for identifying compounds that modulate bitter taste” (CHROMOCELL CORPORATION, priority 2011, dated 2016).

Holding throughout (format): cell-based
For experiment [1], the target named is T1, TAS2R55 (Homo sapiens, UniProt Q7RTR8).
T1 construct: expressed in transfected cells
T1 sequence (Q7RTR8 1-314): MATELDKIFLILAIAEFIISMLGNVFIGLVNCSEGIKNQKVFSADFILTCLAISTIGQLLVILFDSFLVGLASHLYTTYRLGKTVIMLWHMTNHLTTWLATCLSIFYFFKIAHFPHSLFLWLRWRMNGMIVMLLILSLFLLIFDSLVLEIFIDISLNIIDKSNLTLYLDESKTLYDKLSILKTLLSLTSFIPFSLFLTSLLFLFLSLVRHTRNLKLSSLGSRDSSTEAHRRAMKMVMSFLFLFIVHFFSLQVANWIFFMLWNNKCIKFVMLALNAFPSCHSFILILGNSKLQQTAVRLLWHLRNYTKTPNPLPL
Description: Calcium fluorescence functional assay, TAS2R55 cell line. The following applies: 20 mM tastant; cell line expressing human TAS2R55 and mouse Gα15. As for the experimental part: (§1) Accordingly, each cell line of the panel expressed a human bitter taste receptor and mouse Gα15 signaling protein.
(§2) Probenecid was not included in the load solution.
(§3) After dye loading, cell plates were placed in a fluorescent plate reader (e.g., FDSS6000 (Hamamatsu, Japan)) and receptor stimulation was measured by adding 50 ul of 3× concentrated ligand/agonist stock. Fluorescence was monitored continuously for 10 s before agonist addition and for 100-250 s after stimulation with agonist.
(§4) Receptor Activation is defined as follows: % Activation=[((Maximum signal fluorescence−Minimum signal fluorescence)−(Maximum control fluorescence−Minimum control fluorescence))/(Maximum buffer fluorescence−Minimum buffer fluorescence)]*100 Functional Response=[(Maximum signal fluorescence−Minimum signal fluorescence)−(Maximum control fluorescence−Minimum control fluorescence)] • Signal Fluorescence: refers to the change in fluorescence seen with addition of ligand • Control fluorescence: refers to the change in fluorescence seen with addition of buffer (negative control) • Calcium signals from ligand and control were normalized to the basal fluorescence of the cells prior to the stimulation.
(§5) A concentration analysis was performed and EC50 values were calculated by nonlinear regression using the formula: Y=Bottom+(Top-Bottom)/(1+10^((Log EC50-X)*Hill Slope)), X=log of dose or concentration, Y=Response (increasing as X increases), Top=maximum signal, Bottom=minimum signal.

Experiment [2] concerns the target T2, TAS2R47 (Homo sapiens, UniProt P59541).
T2 construct: expressed in transfected cells
T2 sequence (P59541 1-319): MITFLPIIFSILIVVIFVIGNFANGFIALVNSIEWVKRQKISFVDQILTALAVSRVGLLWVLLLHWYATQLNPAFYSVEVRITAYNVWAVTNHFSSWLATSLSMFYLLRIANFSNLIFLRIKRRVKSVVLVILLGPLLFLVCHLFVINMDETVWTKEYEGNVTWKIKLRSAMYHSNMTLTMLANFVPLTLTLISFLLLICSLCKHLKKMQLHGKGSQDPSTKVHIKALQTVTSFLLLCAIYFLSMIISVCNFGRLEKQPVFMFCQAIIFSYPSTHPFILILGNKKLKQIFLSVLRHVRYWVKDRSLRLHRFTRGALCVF
Briefly: Calcium fluorescence functional assay, TAS2R47 cell line. The following applies: 20 mM tastant; cell line expressing human TAS2R47 and mouse Gα15. As to the method: as §1, §2, §3, §4, §5

Experiment [3] concerns the target T3, TAS2R44 (Homo sapiens, UniProt P59538).
T3 construct: expressed in transfected cells
T3 sequence (P59538 1-309): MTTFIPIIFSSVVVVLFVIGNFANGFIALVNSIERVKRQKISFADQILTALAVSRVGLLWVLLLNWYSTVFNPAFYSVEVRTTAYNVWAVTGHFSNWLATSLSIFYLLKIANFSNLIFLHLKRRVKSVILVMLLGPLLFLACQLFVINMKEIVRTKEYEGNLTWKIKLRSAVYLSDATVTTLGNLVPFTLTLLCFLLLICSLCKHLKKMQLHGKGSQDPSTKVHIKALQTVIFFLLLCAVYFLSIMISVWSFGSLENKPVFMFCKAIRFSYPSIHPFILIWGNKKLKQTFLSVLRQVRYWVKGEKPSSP
Description: Calcium fluorescence functional assay, TAS2R44 cell line. The following applies: for TAS2R44 bitter taste receptor activity (changes in intracellular calcium): 20 mM tastant, cell line expressing human TAS2R44 and mouse Gα15. As to the method:
as §1, §2, §3, §4, §5
In general terms: Calcium assays in cells follow changes in intracellular calcium, usually with a dye or a luminescent sensor.

For experiment [4], the target named is T4, TAS2R43 (Homo sapiens, UniProt P59537).
T4 construct: expressed in transfected cells
T4 sequence (P59537 1-309): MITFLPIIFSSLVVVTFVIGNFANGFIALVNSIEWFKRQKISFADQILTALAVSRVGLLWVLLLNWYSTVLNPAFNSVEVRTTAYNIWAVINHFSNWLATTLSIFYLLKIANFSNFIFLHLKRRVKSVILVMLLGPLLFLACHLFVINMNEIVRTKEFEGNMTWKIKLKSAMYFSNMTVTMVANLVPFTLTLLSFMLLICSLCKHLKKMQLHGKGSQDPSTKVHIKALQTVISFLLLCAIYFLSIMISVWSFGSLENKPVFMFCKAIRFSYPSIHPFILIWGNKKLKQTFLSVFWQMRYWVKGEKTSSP
Briefly: Calcium fluorescence functional assay, TAS2R43 cell line. The following applies: 20 mM tastant; cell line expressing human TAS2R43 and mouse Gα15. As to the method:
as §1, §2, §3, §4, §5

In experiment [5] the target is T5, TAS2R45 (Homo sapiens, UniProt P59539).
T5 construct: expressed in transfected cells
T5 sequence (P59539 1-299): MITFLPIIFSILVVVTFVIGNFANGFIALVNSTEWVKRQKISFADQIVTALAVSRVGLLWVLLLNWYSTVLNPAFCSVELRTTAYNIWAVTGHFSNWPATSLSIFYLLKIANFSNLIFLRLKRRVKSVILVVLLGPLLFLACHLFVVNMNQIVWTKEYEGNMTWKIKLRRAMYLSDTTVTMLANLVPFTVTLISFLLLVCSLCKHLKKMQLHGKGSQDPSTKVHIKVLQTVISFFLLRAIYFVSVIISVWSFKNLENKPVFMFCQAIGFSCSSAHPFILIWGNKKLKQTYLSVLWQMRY
Description: Calcium fluorescence functional assay, TAS2R45 cell line. The following applies: 20 mM tastant; cell line expressing human TAS2R45 and mouse Gα15. As to the method: as §1, §2, §3, §4, §5

The target of experiment [6] is T6, TAS2R46 (Homo sapiens, UniProt P59540).
T6 construct: expressed in transfected cells
T6 sequence (P59540 1-309): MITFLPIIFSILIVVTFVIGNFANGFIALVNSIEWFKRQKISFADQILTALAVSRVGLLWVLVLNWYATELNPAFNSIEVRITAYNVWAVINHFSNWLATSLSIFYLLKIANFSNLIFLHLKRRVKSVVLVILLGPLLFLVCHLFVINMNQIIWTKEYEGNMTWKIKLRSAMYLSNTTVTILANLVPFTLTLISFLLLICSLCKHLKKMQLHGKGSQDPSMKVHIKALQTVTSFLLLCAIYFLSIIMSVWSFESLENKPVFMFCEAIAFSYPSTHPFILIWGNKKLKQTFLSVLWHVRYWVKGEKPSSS
Briefly: Calcium fluorescence functional assay, TAS2R46 cell line. The following applies: 20 mM tastant; cell line expressing human TAS2R46 and mouse Gα15. As for the experimental part: as §1, §2, §3, §4, §5

The target in experiment [7] is T7, TAS2R40 (Homo sapiens, UniProt P59535).
T7 construct: expressed in transfected cells
Briefly: Calcium fluorescence functional assay, TAS2R40 cell line. The following applies: 20 mM tastant; cell line expressing human TAS2R40 and mouse Gα15. As for the experimental part: as §1, §2, §3, §4, §5

T7 sequence (P59535 whole entry): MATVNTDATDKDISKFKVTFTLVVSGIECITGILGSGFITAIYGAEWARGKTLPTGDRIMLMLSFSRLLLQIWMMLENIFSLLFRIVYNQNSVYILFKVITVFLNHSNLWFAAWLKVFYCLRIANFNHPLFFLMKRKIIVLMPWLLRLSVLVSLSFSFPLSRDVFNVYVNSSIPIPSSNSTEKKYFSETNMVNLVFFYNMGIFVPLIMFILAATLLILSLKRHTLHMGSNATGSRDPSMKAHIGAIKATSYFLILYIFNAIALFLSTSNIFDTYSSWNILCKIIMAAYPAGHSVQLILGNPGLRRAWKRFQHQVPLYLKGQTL

In the case of `CC(O)C(=O)[O-].[K+]` (stereo not shown) [Potassium lactate, potassium lactate], the “TAS2R55 bitter taste receptor activity (changes in intracellular calcium)” value in experiment [1] is “did not induce”. Besides, in experiment [2], the “TAS2R47 bitter taste receptor activity (changes in intracellular calcium)” value is “did not induce”. For the same compound, the “TAS2R44 bitter taste receptor activity (changes in intracellular calcium)” value in experiment [3] is “induced”. For the same compound, the “TAS2R43 bitter taste receptor activity (changes in intracellular calcium)” value in experiment [4] was “did not induce”. Further, in experiment [5], the “TAS2R45 bitter taste receptor activity (changes in intracellular calcium)” value is “did not induce”. Further, the “TAS2R46 bitter taste receptor activity (changes in intracellular calcium)” value in experiment [6] is recorded as “induced”. Further, the “TAS2R40 bitter taste receptor activity (changes in intracellular calcium)” value in experiment [7] was “did not induce”.

For `[Cl-].[K+]` [KCl, potassium chloride], the “TAS2R55 bitter taste receptor activity (changes in intracellular calcium)” value in experiment [1] is on record as “did not induce”. In experiment [2], the “TAS2R47 bitter taste receptor activity (changes in intracellular calcium)” value is listed as “did not induce”. Further, the “TAS2R44 bitter taste receptor activity (changes in intracellular calcium)” value in experiment [3] was “induced”. Also, the EC50 in experiment [3] (increasing concentrations of KCl, TAS2R44 cell line (FIG. 3), read-out: EC50 value, activation of TAS2R44) was 5 to 15 mM. Also, in experiment [4], the “TAS2R43 bitter taste receptor activity (changes in intracellular calcium)” value was “did not induce”. In experiment [5], the “TAS2R45 bitter taste receptor activity (changes in intracellular calcium)” value is reported as “did not induce”. Further, the “TAS2R46 bitter taste receptor activity (changes in intracellular calcium)” value in experiment [6] is on record as “did not induce”. In experiment [7], the “TAS2R40 bitter taste receptor activity (changes in intracellular calcium)” value was “did not induce”.

For `CC1=CC(=O)NS(=O)(=O)O1` [Acesulfame K], the “TAS2R55 bitter taste receptor activity (changes in intracellular calcium)” value in experiment [1] is listed as “did not induce”. For the same compound, in experiment [2], the “TAS2R47 bitter taste receptor activity (changes in intracellular calcium)” value was “did not induce”. Besides, the “TAS2R44 bitter taste receptor activity (changes in intracellular calcium)” value in experiment [3] is reported as “induced”. For the same compound, in experiment [4], the “TAS2R43 bitter taste receptor activity (changes in intracellular calcium)” value was “did not induce”. The “TAS2R45 bitter taste receptor activity (changes in intracellular calcium)” value in experiment [5] is on record as “did not induce”. The “TAS2R46 bitter taste receptor activity (changes in intracellular calcium)” value in experiment [6] is “did not induce”. In experiment [7], the “TAS2R40 bitter taste receptor activity (changes in intracellular calcium)” value is reported as “did not induce”.

Broadly, the EC50 is the concentration giving half of the maximal effect.
